According to patent US8765721B2, “Composition comprising phosphatidyl serine and an antigen or allergen and the use thereof” (Vaccine Technology Limited, priority 2004, dated 2014):

Legend:
Format in all cases: in vivo, rat
IgE [1] = experiment: Ovalbumin-specific IgE ELISA of serum of immunised rats; conditions: pooled group serum
Procedure: (§1) Rats were injected with vaccine compositions comprising the ovalbumin antigen with and without di-oleoyl phosphatidyl serine, lyso-oleoyl phosphatidyl serine or stearoyl(X1)-arachidonoyl(X2) phosphatidyl serine and the concentrations of IgE, IgA and IgG are compared.
(§2) The animals were acclimatised for a period of 5 days prior to dosing. During the acclimatisation period animals were observed twice daily during the working week and once on each day during the weekend to evaluate the health status of the animals. Rats were then allocated to the following dose groups using computer-generated random order numbers.
(§3) On day 0, 20 μg of ovalbumin (OA) in phosphate buffered saline (PBS) with alhydrogel (AHG) adjuvant in a final volume of 0.5 mL was administered.
(§4) On days 21 and 42, 20 μg of ovalbumin (OA) in phosphate buffered saline (PBS) with the relevant test compound in a final volume of 0.5 ml was administered.
(§5) In each case, 0.5 mL of inoculum was injected subcutaneously into the scruff of the neck.
(§6) […] A blood sample was also taken from each animal on Days 15, 22, 29, 36, 43, 50, 57 and 64.
(§7) Serum was prepared by centrifugation of the blood sample at 2,500 rpm for 10 minutes and frozen at −20° C. The samples were then analysed by ELISA to establish the concentration of IgE, IgA and IgG1, IgG2a and IgG2b.
(§8) The purpose of an ELISA is to determine whether a particular protein is present in a sample and then enables quantification of how much is present. By coating the bottom of wells with ovalbumin (OVA) it is possible to bind anti-OVA specific antibodies. To detect only anti-OVA IgA antibodies anti-rat IgA conjugated to HRP was used as a secondary antibody. Quantification of specific antibodies in the rat sera samples was performed using antibody titrations. The data was reported as endpoint titers. Endpoint titers are defined as the last serum dilution giving an optical density value equal to twice the background optical density for the ELISA plate (buffer).

IgA [2] = experiment: Ovalbumin-specific IgA ELISA of serum of immunised rats; conditions: pooled group serum
Procedure: as §1, §2, §3, §4, §5
On Day 0 a pre-inoculation blood sample was taken. A blood sample was also taken from each animal on Days 15, 22, 29, 36, 43, 50, 57 and 64.
as §7, §8

IgG1 = experiment: Ovalbumin-specific IgG1 ELISA of serum of immunised rats; conditions: pooled group serum
Procedure: as §1, §2, §3, §4
(§9) In each case, 0.5 mL of inoculum was injected subcutaneously into the scruff of the neck. […]
as §7
as §8, with “To detect only anti-OVA IgA antibodies anti-rat IgA conjugated to HRP was used as a secondary antibody.” left out

IgG2a = experiment: Ovalbumin-specific IgG2a ELISA of serum of immunised rats; conditions: pooled group serum
Procedure: as §1, §2, §3, §4, §9, §7, §8

IgG2b = experiment: Ovalbumin-specific IgG2b ELISA of serum of immunised rats; conditions: pooled group serum
Procedure: as §1, §2, §3, §4, §5, §6, §7, §8

IgE [3] = experiment: Ovalbumin-specific IgE ELISA of serum of immunised rats; conditions: Day 1; 250 ug with 20 μg Ova s.c. on days 21 and 42; pooled group serum
IgA [4] = experiment: Ovalbumin-specific IgA ELISA of serum of immunised rats; conditions: Day 1; 50 ug with 20 μg Ova s.c. on days 21 and 42; pooled group serum
[5] = Day 1, 50 ug with 20 μg Ova s.c. on days 21 and 42
[6] = Day 15, 50 ug with 20 μg Ova s.c. on days 21 and 42
[7] = Day 15, 250 ug with 20 μg Ova s.c. on days 21 and 42
[8] = Day 22, 50 ug with 20 μg Ova s.c. on days 21 and 42
[9] = Day 22, 250 ug with 20 μg Ova s.c. on days 21 and 42
[10] = Day 29, 50 ug with 20 μg Ova s.c. on days 21 and 42
[11] = Day 29, 250 ug with 20 μg Ova s.c. on days 21 and 42
[12] = Day 36, 50 ug with 20 μg Ova s.c. on days 21 and 42
[13] = Day 36, 250 ug with 20 μg Ova s.c. on days 21 and 42
[14] = Day 43, 50 ug with 20 μg Ova s.c. on days 21 and 42
[15] = Day 43, 250 ug with 20 μg Ova s.c. on days 21 and 42
[16] = Day 50, 50 ug with 20 μg Ova s.c. on days 21 and 42
[17] = Day 50, 250 ug with 20 μg Ova s.c. on days 21 and 42
[18] = Day 57, 50 ug with 20 μg Ova s.c. on days 21 and 42
[19] = Day 57, 250 ug with 20 μg Ova s.c. on days 21 and 42
[20] = Day 64, 50 ug with 20 μg Ova s.c. on days 21 and 42
[21] = Day 64, 250 ug with 20 μg Ova s.c. on days 21 and 42
[22] = Day 1, 250 ug with 20 μg Ova s.c. on days 21 and 42

CCCCCCCC/C=C\CCCCCCCC(=O)OC[C@H](COP(=O)(O)OC[C@H](N)C(=O)O)OC(=O)CCCCCCC/C=C\CCCCCCCC [VT001, Dioleoyl phosphatidyl serine]
40960: IgG1 endpoint titer (IgG1; [10]) | IgG1 endpoint titer (IgG1; [13]) | IgG1 endpoint titer (IgG1; [18]) | IgG1 endpoint titer (IgG1; [19]) | IgG2a endpoint titer (IgG2a; [16]) | IgG2a endpoint titer (IgG2a; [17]) | IgG2a endpoint titer (IgG2a; [18]) | IgG2a endpoint titer (IgG2a; [19])
1280: IgE endpoint titer (IgE [1]; [16]) | IgE endpoint titer (IgE [1]; [17]) | IgA endpoint titer (IgA [2]; [16]) | IgA endpoint titer (IgA [2]; [17]) | IgA endpoint titer (IgA [2]; [18]) | IgA endpoint titer (IgA [2]; [19]) | IgG2a endpoint titer (IgG2a; [9]) | IgG2b endpoint titer (IgG2b; [15]) | IgG2b endpoint titer (IgG2b; [17])
20480: IgG1 endpoint titer (IgG1; [11]) | IgG1 endpoint titer (IgG1; [12]) | IgG1 endpoint titer (IgG1; [16]) | IgG1 endpoint titer (IgG1; [20]) | IgG1 endpoint titer (IgG1; [21]) | IgG2a endpoint titer (IgG2a; [20]) | IgG2a endpoint titer (IgG2a; [21])
10240: IgG1 endpoint titer (IgG1; [14]) | IgG1 endpoint titer (IgG1; [15]) | IgG1 endpoint titer (IgG1; [17]) | IgG2a endpoint titer (IgG2a; [12]) | IgG2a endpoint titer (IgG2a; [14]) | IgG2a endpoint titer (IgG2a; [15])
160: IgE endpoint titer (IgE [1]; [18]) | IgE endpoint titer (IgE [1]; [19]) | IgG1 endpoint titer (IgG1; [6]) | IgG1 endpoint titer (IgG1; [7]) | IgG2b endpoint titer (IgG2b; [6]) | IgG2b endpoint titer (IgG2b; [10]) | IgG2b endpoint titer (IgG2b; [12]) | IgG2b endpoint titer (IgG2b; [14])
2560: IgG1 endpoint titer (IgG1; [8]) | IgG1 endpoint titer (IgG1; [9]) | IgG2a endpoint titer (IgG2a; [8]) | IgG2a endpoint titer (IgG2a; [11]) | IgG2b endpoint titer (IgG2b; [13]) | IgG2b endpoint titer (IgG2b; [16])
40: IgE endpoint titer (IgE [1]; [11]) | IgE endpoint titer (IgE [1]; [12]) | IgE endpoint titer (IgE [1]; [13]) | IgE endpoint titer (IgE [1]; [21]) | IgG2a endpoint titer (IgG2a; [6])
320: IgA endpoint titer (IgA [2]; [10]) | IgA endpoint titer (IgA [2]; [11]) | IgA endpoint titer (IgA [2]; [14]) | IgG2b endpoint titer (IgG2b; [7]) | IgG2b endpoint titer (IgG2b; [8])
5120: IgG2a endpoint titer (IgG2a; [10]) | IgG2a endpoint titer (IgG2a; [13]) | IgG2b endpoint titer (IgG2b; [18]) | IgG2b endpoint titer (IgG2b; [19]) | IgG2b endpoint titer (IgG2b; [20]) | IgG2b endpoint titer (IgG2b; [21])
640: IgA endpoint titer (IgA [2]; [12]) | IgA endpoint titer (IgA [2]; [13]) | IgA endpoint titer (IgA [2]; [15]) | IgA endpoint titer (IgA [2]; [20]) | IgA endpoint titer (IgA [2]; [21]) | IgG2a endpoint titer (IgG2a; [7]) | IgG2b endpoint titer (IgG2b; [9]) | IgG2b endpoint titer (IgG2b; [11])
80: IgE endpoint titer (IgE [1]; [15])
0: IgE endpoint titer (IgE [1]; [5]) | IgE endpoint titer (IgE [1]; [6]) | IgE endpoint titer (IgE [1]; [7]) | IgE endpoint titer (IgE [1]; [8]) | IgE endpoint titer (IgE [1]; [9]) | IgE endpoint titer (IgE [1]; [10]) | IgE endpoint titer (IgE [1]; [14]) | IgE endpoint titer (IgE [1]; [20]) | IgA endpoint titer (IgA [2]; [22]) | IgA endpoint titer (IgA [2]; [6]) | IgA endpoint titer (IgA [2]; [7]) | IgA endpoint titer (IgA [2]; [8]) | IgA endpoint titer (IgA [2]; [9]) | IgG1 endpoint titer (IgG1; [5]) | IgG1 endpoint titer (IgG1; [22]) | IgG2a endpoint titer (IgG2a; [5]) | IgG2a endpoint titer (IgG2a; [22]) | IgG2b endpoint titer (IgG2b; [5]) | IgG2b endpoint titer (IgG2b; [22]) | IgE endpoint titer (IgE [3]) | IgA endpoint titer (IgA [4])
